Assay results reported in patent US20100323990A1, “SHIP 1 MODULATOR PRODRUGS” (THE UNIVERSITY OF BRITISH COLUMBIA, priority 2006, published 2010).

Tests used:
J774.1a macrophage cells [1] = assay: Macrophage TNF-α production (Assay 2); format: cell-based; conditions: 10 μg/mL test compound, 100 ng/mL LPS, supernatants after 2 hr and 5 hr; further: key: a ‘+’ indicates a positive result for desired activity; a ‘−’ indicates a negative result for desired activity
In short: (§1)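 J774.1a macrophages pretreated 40 min with 10 μg/mL compound, then LPS (100 ng/mL for TNF-α); TNF-α by ELISA in supernatants at 2 and 5 h, NO by Griess at 24 h. Mast cells IgE-loaded (anti-DNP), compound 30 min, DNP-HSA challenge; calcium flux by fura-2 spectrofluorometry, signalling by immunoblot.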

J774.1a macrophage cells [2] = assay: Macrophage TNF-α NO assay (Assay 3), Griess reagent; format: cell-based; conditions: 10 μg/ml test compound, LPS, supernatants after 24 hr; further: key: a ‘+’ indicates a positive result for desired activity; a ‘−’ indicates a negative result for desired activity
In short: as §1

[3] = tested on: CD1 mice sensitized to the hapten DNP; assay: Mouse acute cutaneous anaphylaxis model (Assay 5); format: in vivo; conditions: for Assay 5: Mouse acute cutaneous anaphylaxis model, desired activity: topical on ear, DNFB challenge, MPO activity
plasma TNFα = assay: Mouse endotoxemia model (Assay 6), plasma TNFα by ELISA; format: in vivo, mice; conditions: for Assay 6: Mouse endotoxemia model, desired activity: oral, 30 min prior to IP 2 mg/kg LPS, plasma TNFα 2 hrs later
Protocol: Assay 1) In vitro testing in a SHIP enzyme assay. Test compounds were dissolved in a suitable solvent (e.g. EtOH, DMSO and others) and diluted into aqueous buffer (20 mM Tris HCl, pH 7.5 and 10 mM MgCl2). SHIP enzyme assays were performed in 96-well microtitre plates with 10 ng of enzyme/well in a total volume of 25 μL of 20 mM Tris HCl, pH 7.5 and 10 mM MgCl2. SHIP enzyme was incubated with test extracts (provided in solvent) or vehicle for 15 min at 23° C. before the addition of 100 μM inositol-1,3,4,5-tetrakisphosphate (Echelon Biosciences Inc, Salt Lake City, Utah). After 20 min at 37° C. and the amount of inorganic phosphate released assessed by the addition of Malachite Green reagent and absorbance measurement at 650 nm. Assay 2) Macrophage TNF-α production. J774.1a macrophage cells were treated with 10 μg/mL of test compound dissolved in solvent (e.g. cyclodextran) for 40 minutes prior to the addition of 100 ng/mL LPS. Culture supernatants were collected after 2 hr and 5 hr for TNF-α determination by ELISA. Assay 3) Macrophage TNF-α NO assay. J774.1a macrophage cells were treated with 10 μg/ml of test compound dissolved in solvent for 40 minutes prior to the addition of LPS. Culture supernatants were collected after 24 hr. for determination of NO concentration using the Griess reagent. Assay 4) Stimulation of mast cells by FcεRI crosslinking. Mast cells were pre-loaded overnight in BMMC medium lacking IL-3 with 0.1 μg/ml anti-DNP IgE (SPE-7, Sigma, Oakville, Ont). For calcium flux measurements, cells were incubated with 2 μM fura 2-acetoxymethyl ester (Molecular Probes, Eugene, Oreg.) in Tyrode's buffer at 23° C. for 45 min. Cells were then washed and incubated in the presence of the test compound 30 min prior to stimulation with the indicated concentration of DNP-human serum albumin (DNP-HSA). Calcium influx was monitored by spectrofluorometry as described previously. For analysis of intracellular signaling, cells were pre-loaded with anti-DNP IgE as above, pre-treated with the test compound for 30 min at 37° C. and stimulated with 20 ng/ml DNP-HSA for 5 min. Total cell lysates were then prepared and analyzed for phospho-PKB, phospho-p38^MAPK, phospho-MAPK, Grb-2 (Cell Signalling, Mississauga, Ont) and SHIP^6 by immunoblot analysis. Assay 5) Mouse acute cutaneous anaphylaxis model. 6-8 week old CD1 mice (University of British Columbia Animal Facility, Vancouver, BC) were sensitized to the hapten DNP by cutaneous application of 25 μL of 0.5% dinitrofluorobenzene (DNFB) (Sigma, Oakville, Ont) in acetone to the shaved abdomen of mice for two consecutive days. 24 hrs later, test substances (dissolved in 10 μL of 1:2 DMSO:MeOH) were painted on the right ear while the left ear received vehicle control. 30 min after drug application, DNFB was applied to both ears to induce mast cell degranulation. A 6 mm punch was taken from the ear and immediately frozen on dry ice for subsequent determination of neutrophil myeloperoxidase (MPO) activity. Assay 6) Mouse endotoxemia model. […] The ability of SHIP activators to reduce tumor cell survival was assessed in MM cell lines treated with the test compound. The lines OPM1, OPM2, MM.1S and RPMI 8226 were plated at a density of 1×10^5 cells/mL in 200 μL of medium with various concentrations of the test compound, and viable cell numbers were determined on day 3 and day 5 by trypan blue exclusion. […]

MM cell lines = assay: In vitro Multiple Myeloma (MM) assay (Assay 7); format: cell-based; conditions: for Assay 7: In vitro Multiple Myeloma (MM) assay, desired activity: viable cell number by trypan blue, [3H]-thymidine; on Assay 7: In vitro Multiple Myeloma (MM) assay, desired activity: key: a ‘+’ indicates a positive result for desired activity; a ‘−’ indicates a negative result for desired activity
Protocol: Assay 1) In vitro testing in a SHIP enzyme assay. Test compounds were dissolved in a suitable solvent (e.g. EtOH, DMSO and others) and diluted into aqueous buffer (20 mM Tris HCl, pH 7.5 and 10 mM MgCl2). SHIP enzyme assays were performed in 96-well microtitre plates with 10 ng of enzyme/well in a total volume of 25 μL of 20 mM Tris HCl, pH 7.5 and 10 mM MgCl2. SHIP enzyme was incubated with test extracts (provided in solvent) or vehicle for 15 min at 23° C. before the addition of 100 μM inositol-1,3,4,5-tetrakisphosphate (Echelon Biosciences Inc, Salt Lake City, Utah). After 20 min at 37° C. and the amount of inorganic phosphate released assessed by the addition of Malachite Green reagent and absorbance measurement at 650 nm. Assay 2) Macrophage TNF-α production. J774.1a macrophage cells were treated with 10 μg/mL of test compound dissolved in solvent (e.g. cyclodextran) for 40 minutes prior to the addition of 100 ng/mL LPS. Culture supernatants were collected after 2 hr and 5 hr for TNF-α determination by ELISA. Assay 3) Macrophage TNF-α NO assay. J774.1a macrophage cells were treated with 10 μg/ml of test compound dissolved in solvent for 40 minutes prior to the addition of LPS. Culture supernatants were collected after 24 hr. for determination of NO concentration using the Griess reagent. Assay 4) Stimulation of mast cells by FcεRI crosslinking. Mast cells were pre-loaded overnight in BMMC medium lacking IL-3 with 0.1 μg/ml anti-DNP IgE (SPE-7, Sigma, Oakville, Ont). For calcium flux measurements, cells were incubated with 2 μM fura 2-acetoxymethyl ester (Molecular Probes, Eugene, Oreg.) in Tyrode's buffer at 23° C. for 45 min. Cells were then washed and incubated in the presence of the test compound 30 min prior to stimulation with the indicated concentration of DNP-human serum albumin (DNP-HSA). Calcium influx was monitored by spectrofluorometry as described previously. For analysis of intracellular signaling, cells were pre-loaded with anti-DNP IgE as above, pre-treated with the test compound for 30 min at 37° C. and stimulated with 20 ng/ml DNP-HSA for 5 min. Total cell lysates were then prepared and analyzed for phospho-PKB, phospho-p38^MAPK, phospho-MAPK, Grb-2 (Cell Signalling, Mississauga, Ont) and SHIP^6 by immunoblot analysis. Assay 5) Mouse acute cutaneous anaphylaxis model. 6-8 week old CD1 mice (University of British Columbia Animal Facility, Vancouver, BC) were sensitized to the hapten DNP by cutaneous application of 25 μL of 0.5% dinitrofluorobenzene (DNFB) (Sigma, Oakville, Ont) in acetone to the shaved abdomen of mice for two consecutive days. 24 hrs later, test substances (dissolved in 10 μL of 1:2 DMSO:MeOH) were painted on the right ear while the left ear received vehicle control. 30 min after drug application, DNFB was applied to both ears to induce mast cell degranulation. A 6 mm punch was taken from the ear and immediately frozen on dry ice for subsequent determination of neutrophil myeloperoxidase (MPO) activity. Assay 6) Mouse endotoxemia model. 6-8 week old C57B16 mice (VCHRI Mammalian Model of Human Disease Core Facility, Vancouver, BC) were orally administered the test compound 30 min prior to an IP injection of 2 mg/kg of LPS (E. Coli serotype 0111:B4, Sigma, Oakville, Ont). Blood was drawn 2 hrs later for determination of plasma TNFα by ELISA. Assay 7) In vitro Mulitple Myeloma (MM) assay. The ability of SHIP activators to reduce tumor cell survival was assessed in MM cell lines treated with the test compound. The lines OPM1, OPM2, MM.1S and RPMI 8226 were plated at a density of 1×10^5 cells/mL in 200 μL of medium with various concentrations of the test compound, and viable cell numbers were determined on day 3 and day 5 by trypan blue exclusion. The lines RPMI 8226 and U266 were plated at a density of 1×10^6 cells/mL in 250 μL of medium with various concentrations of the test compound. At day 4, the medium of each culture was replaced by fresh medium containing the same concentration of test compound. […]

[4] = tested on: luciferase expressing OPM2 cells; assay: In vivo Multiple Myeloma (MM) assay (Assay 8), OPM2 xenograft; set-up: species or system mice; conditions: 50 mg/kg every 3 days, subcutaneous oil depot
Protocol: Assay 8) In vivo Multiple Myeloma (MM) assay. Mice were inoculated with at two sites each with 3×10^6 luciferase expressing OPM2 cells suspended in 50 μL of growth medium and 50 μL of Matrigel basement membrane matrix (Becton Dickenson; Bedford, Mass.). Tumors were injected subcutaneously in the upper and lower flanks of the mice and allowed to establish for 2 weeks. After 2 weeks, a test compound or control vehicle was administered in a subcutaneous oil depot at a dose of 50 mg/kg every 3 days.
Tumors were measured using bioluminescence imaging on the Xenogen IVIS 200. Mice received intra-peritoneal injections of 200 μL of D-luciferin at 3.75 mg/mL in sterile PBS. Mice were then anesthetized with isofluorane and imaged 15 minutes post-injection of luciferin. Quantification of tumor size was performed using the Living Image™ software.
MM Xenograft murine model. Mice were inoculated with at two sites each with 3×10^6 luciferase expresseing OPM2 cells suspended in 50 μL of growth medium and 50 μL of Matrigel basement membrane matrix (Becton Dickenson; Bedford, Mass.). Tumors were injected subcutaneously in the upper and lower flanks of the mice and allowed to establish for 2 weeks. […]
Tumors were measured using bioluminescence imaging on the Xenogen IVIS 200. […] Quantification of tumor size was performed using the Living Image™ software. […]

Row | Structure (SMILES) | Assay 2: Macrophage TNF-α production, desired activity (J774.1a macrophage cells [1]) | Assay 3: Macrophage NO assay, desired activity (J774.1a macrophage cells [2]) | Assay 5: Mouse acute cutaneous anaphylaxis model, desired activity [3] | allergen (DNFB)-induced inflammation of the ear ([3]; topically applied, vs vehicle control-treated ear) | LPS-induced plasma/serum TNFα levels (plasma TNFα; oral administration 30 min prior to LPS) | Assay 6: Mouse endotoxemia model, desired activity (plasma TNFα) | MM proliferation / tumor cell survival, comparison (MM cell lines; OPM1, OPM2, MM.1S, RPMI 8226, U266, trypan blue) | Assay 7: In vitro Multiple Myeloma (MM) assay, desired activity (MM cell lines) | Assay 8: In vivo Multiple Myeloma (MM) assay, desired activity [4]
1 | Cc1cc(O)cc2c1[C@]1(C)CCC3C(C)(C)CCC[C@]3(C)[C@H]1C2 (stereo partly drawn) [Compound 100] | + | + | + | dramatically inhibited allergen-induced inflammation | efficiently inhibited | + | inhibits MM proliferation at lower concentrations than AQX-016A | + | +
2 | Cc1cc(O)c(O)c2c1[C@]1(C)CCC3C(C)(C)CCC[C@]3(C)[C@H]1C2 (stereo partly drawn) [AQX-016A] | + | + | + |  |  | + |  | + | +
